Results: patent publication US9592294B2, “Polyalkoxylated alcohols as excipients for pharmaceutical compositions” (Dow Global Technologies LLC, priority 2013, dated 2017)

Columns and labels:
[1] = Turbidity of wet-milled reference drug suspensions without excipient; format: physicochemical; conditions: 26 mg/L Probucol, assuming linear relationship between undissolved drug and turbidity
Experimental: Moreover, wet-milled drug suspensions were analyzed as reference samples to determine the turbidity of the drugs in the absence of excipients. […] 78.6 g of yttrium-stabilized zirconia grinding beads (YTZ from Tosoh Corp., diameter: 0.5 mm) were provided in a 50 mL plastic bottle and 10.0 g deionized water and 0.54 g of the respective drug were added. In the case of Probucol, a dispersant, Daxad 19LS (from Hampshire Chem. Corp.), was added in an amount corresponding to 1 wt. % of the mass of Probucol to counteract coating of the milling beads by the drug. The resulting mixture was placed on a rotating ball mill for 24 h. Subsequently 11.06 g of deionized water were added, the suspension was shaken extensively and then separated from the milling beads. An aliquot of 0.20 g of this suspension was further diluted with 49.80 g of deionized water to yield a suspension having a nominal drug concentration of 0.01 wt. %, which was then analyzed for its turbidity using a Nepheloskan Ascent instrument from ThermoLabsystem. […] Table 5 summarizes the measured turbidity of the wet milled reference drug suspensions along with the average particle size of the suspended drug particles measured using a 90 Plus Particle Size Analyzer instrument from Brookhaven Instruments Corp. and literature values for the aqueous solubility of the drugs.

[2] = phosphate buffer pH 7.0, terpene alcohol ethoxylates 20 wt. %, versus buffer alone; cited from earlier work

Turbidity calculated for a Probucol suspension [1] [RNU] | Compound | Increase of saturation drug concentration (factor) [2]
~24 | CC(C)(Sc1cc(C(C)(C)C)c(O)c(C(C)(C)C)c1)Sc1cc(C(C)(C)C)c(O)c(C(C)(C)C)c1 [Probucol] | –
– | Nc1ccc(S(=O)(=O)Nc2nccs2)cc1 [sulfathiazole] | about 14
